These results are taken from patent publication US12122778B2, “Activating pyruvate kinase R” (Novo Nordisk Health Care AG, priority 2018, dated 2024).

One assay deals with PKR(G332S) (Homo sapiens, UniProt P30613, G332S). In words: Luminescence Biochemical Assay (Kinase Glo Plus), PKR G332S mutant. To be noted: with FBP; for activation at 1.54 µM: 1.54 μM compound, read-out: AC50 LUM KGP FBP % Fold@1.54 μM mean; for AC50: read-out: AC50 LUM KGP FBP AC50 μM gmean (column A); for Emax: read-out: AC50 LUM KGP FBP MAX % FOLD mean. (In general: Kinase-Glo measures the ATP left after a reaction by luminescence.)
PKR(G332S), sequence (P30613 whole entry G332S): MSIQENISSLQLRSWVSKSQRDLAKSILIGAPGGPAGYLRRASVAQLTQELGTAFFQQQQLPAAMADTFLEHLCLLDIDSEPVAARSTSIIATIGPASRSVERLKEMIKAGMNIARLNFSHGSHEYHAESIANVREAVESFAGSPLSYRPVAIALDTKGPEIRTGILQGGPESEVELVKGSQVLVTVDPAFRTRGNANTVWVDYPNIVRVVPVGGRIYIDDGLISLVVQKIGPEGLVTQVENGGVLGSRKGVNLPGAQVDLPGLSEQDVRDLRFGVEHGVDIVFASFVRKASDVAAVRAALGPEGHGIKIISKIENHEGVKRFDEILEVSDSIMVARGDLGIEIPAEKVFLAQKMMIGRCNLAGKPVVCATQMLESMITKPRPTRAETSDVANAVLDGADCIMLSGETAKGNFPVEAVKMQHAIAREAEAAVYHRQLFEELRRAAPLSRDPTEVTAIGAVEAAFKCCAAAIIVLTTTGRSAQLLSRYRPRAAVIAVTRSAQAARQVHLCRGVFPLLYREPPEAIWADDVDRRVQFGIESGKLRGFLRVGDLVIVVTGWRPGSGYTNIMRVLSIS

In a further assay the target is PKR(wt) (Homo sapiens, UniProt P30613). As to the kind of experiment: Luminescence Biochemical Assay (Kinase Glo Plus), wild type PKR. To be noted: without FBP; for activation at 1.54 µM: 1.54 μM compound, read-out: AC50 LUM KGP woFBP % Fold@1.54 μM mean; for AC50: read-out: AC50 LUM KGP woFBP AC50 μM gmean; for Emax: read-out: AC50 LUM KGP woFBP MAX % FOLD mean.
PKR(wt), sequence (P30613 whole entry): as the sequence (P30613 whole entry G332S) above, with S332G counted along it
The next assay deals with PKR(R510Q) (Homo sapiens, UniProt P30613, R510Q). As to the kind of experiment: Luminescence Biochemical Assay (Kinase Glo Plus), PKR R510Q mutant. To be noted: without FBP; for activation at 1.54 µM: 1.54 μM compound, read-out: AC50 LUM KGP woFBP % Fold@1.54 μM mean; for AC50: read-out: AC50 LUM KGP woFBP AC50 μM gmean; for Emax: read-out: AC50 LUM KGP woFBP MAX % FOLD mean.
PKR(R510Q), sequence (P30613 whole entry R510Q): as the sequence (P30613 whole entry G332S) above, with S332G, R510Q counted along it

Each structure is given as a SMILES string. Some results are limits rather than exact numbers.

By AC50 is commonly meant the concentration at which the activity in the assay is half-maximal. `O=C(Cc1cccnc1)N1CC2=C(C1)CN(S(=O)(=O)c1ccccn1)C2` [Example 16-1, 2-(Pyridin-3-yl)-1-[5-(pyridine-2-sulfonyl)-1H,2H,3H,4H,5H,6H-pyrrolo[3,4-c]pyrrol-2-yl]ethan-1-one]: on PKR(G332S), the activation at 1.54 µM lay within 75 to 250%, the AC50 fell in the range of 1 to 40 µM and the Emax is 75 to 250%. On PKR(wt), the activation at 1.54 µM lay within 75 to 250%, the AC50 lay within 1 to 40 µM and the Emax was in the range of 250 to 500%. Also, on PKR(R510Q), the activation at 1.54 µM fell in the range of 75 to 250%, the AC50 fell in the range of 1 to 40 µM and the Emax fell in the range of 75 to 250%.

For the compound `Cc1cc(COC(=O)N2CC3=C(C2)CN(S(=O)(=O)c2ccc(OC(F)F)cc2)C3)nn1C` [Example 22-4, (1,5-Dimethyl-1H-pyrazol-3-yl)methyl 5-[4-(difluoromethoxy)benzenesulfonyl]-1H,2H,3H,4H,5H,6H-pyrrolo[3,4-c]pyrrole-2-carboxylate], on PKR(G332S), the activation at 1.54 µM was in the range of 75 to 250%, the AC50 lay in the range of 0.1 to 1 µM and the Emax is 75 to 250%. Further, on PKR(wt), the activation at 1.54 µM lay within 250 to 50000%, the AC50 is 0.1 to 1 µM and the Emax lay within 250 to 500%. Besides, on PKR(R510Q), the activation at 1.54 µM lay in the range of 250 to 50000%, the AC50 lay in the range of 1 to 40 µM and the Emax is 250 to 500%.

In the case of `O=C([C@H](O)c1ccc(F)cc1)N1CC2=C(C1)CN(S(=O)(=O)c1cccnc1)C2` [Example 18-62, (2R)-2-(4-fluorophenyl)-2-hydroxy-1-[5-(pyridine-3-sulfonyl]-1H,2H,3H,4H,5H,6H-pyrrolo[3,4-c]pyrrol-2-yl]ethan-1-one], on PKR(G332S), the activation at 1.54 µM fell in the range of 75 to 250%, the AC50 was 1 to 40 µM and the Emax fell in the range of 75 to 250%. At PKR(wt), the activation at 1.54 µM lay in the range of 75 to 250%, the AC50 lay within 0.1 to 1 µM and the Emax lay within 75 to 250%. Further, at PKR(R510Q), the activation at 1.54 µM is 75 to 250%, the AC50 lay in the range of 1 to 40 µM and the Emax lay within 250 to 500%.

On to `Cc1nc(CC(=O)N2CC3=C(C2)CN(S(=O)(=O)c2ccc(OC(F)F)cc2)C3)cs1` [Example 18-20, 1-{5-[4-(Difluoromethoxy)benzene-sulfonyl]-1H,2H,3H,4H,5H,6H-pyrrolo[3,4-c]pyrrol-2-yl}-2-(2-methyl-1,3-thiazol-4-yl)ethan-1-one], for which, at PKR(G332S), the activation at 1.54 µM was in the range of 75 to 250%, the AC50 was in the range of 1 to 40 µM and the Emax lay in the range of 75 to 250%. Further, at PKR(wt), the activation at 1.54 µM was 250 to 50000%, the AC50 lay within 0.1 to 1 µM and the Emax was 250 to 500%. In addition, on PKR(R510Q), the activation at 1.54 µM is 75 to 250%, the AC50 is 1 to 40 µM and the Emax fell in the range of 250 to 500%.

Take `O=C(NCc1cccc(F)c1)N1CC2=C(C1)CN(S(=O)(=O)c1ccc(OC(F)F)cc1)C2` [Example 21-14, 5-[4-(Difluoromethoxy)benzenesulfonyl]-N-[(3-fluorophenyl)methyl]-1H,2H,3H,4H,5H,6H-pyrrolo[3,4-c]pyrrole-2-carboxamide]: on PKR(G332S), the activation at 1.54 µM lay in the range of 75 to 250%, the AC50 is 0.1 to 1 µM and the Emax lay within 75 to 250%. Moreover, on PKR(wt), the activation at 1.54 µM fell in the range of 250 to 50000%, the AC50 lay within 0.1 to 1 µM and the Emax was 250 to 500%. In addition, on PKR(R510Q), the activation at 1.54 µM was 250 to 50000%, the AC50 is 1 to 40 µM and the Emax was 250 to 500%.

With `O=C(Cc1ccccn1)N1CC2=C(C1)CN(S(=O)(=O)c1ccc(OC(F)F)cc1)C2` [Example 8-1, 1-(5-[[4-(difluoromethoxy)benzene]sulfonyl]-1H,2H,3H,4H,5H,6H-pyrrolo[3,4-c]pyrrol-2-yl)-2-(pyridin-2-yl)ethan-1-one], the activation at 1.54 µM at PKR(G332S) was in the range of 75 to 250%; at PKR(wt), 250 to 50000%; at PKR(R510Q) it was 250 to 50000%. The AC50 at PKR(G332S) was at most 0.1 µM; at PKR(wt), 0.1 to 1 µM; on PKR(R510Q), 0.1 to 1 µM. Besides, the Emax was in the range of 75 to 250% at PKR(G332S), 250 to 500% on PKR(wt) and 250 to 500% at PKR(R510Q).

On to `Cc1ccc(S(=O)(=O)N2CC3=C(CN(C(=O)[C@H](O)c4ccccc4)C3)C2)cc1F` [Example 18-51, (2R)-1-[5-(3-fluoro-4-methylbenzenesulfonyl)-1H,2H,3H,4H,5H,6H-pyrrolo[3,4-c]pyrrol-2-yl]-2-hydroxy-2-phenylethan-1-one], for which, at PKR(G332S), the activation at 1.54 µM lay within 75 to 250%, the AC50 was in the range of 1 to 40 µM and the Emax lay in the range of 75 to 250%. At PKR(wt), the activation at 1.54 µM fell in the range of 75 to 250%, the AC50 lay in the range of 0.1 to 1 µM and the Emax is 75 to 250%. For the same compound, on PKR(R510Q), the activation at 1.54 µM is 75 to 250%, the AC50 fell in the range of 0.1 to 1 µM and the Emax was in the range of 250 to 500%.

For the compound `O=C(NCc1ccccc1F)N1CC2=C(C1)CN(S(=O)(=O)c1cccnc1)C2` [Example 21-37, N-[(2-fluorophenyl)methyl]-5-(pyridine-3-sulfonyl)-1H,2H,3H,4H,5H,6H-pyrrolo[3,4-c]pyrrole-2-carboxamide], on PKR(G332S), the activation at 1.54 µM was in the range of 75 to 250%, the AC50 is 0.1 to 1 µM and the Emax fell in the range of 75 to 250%. Also, on PKR(wt), the activation at 1.54 µM was 75 to 250%, the AC50 fell in the range of 0.1 to 1 µM and the Emax fell in the range of 250 to 500%. For the same compound, at PKR(R510Q), the activation at 1.54 µM was 250 to 50000%, the AC50 lay within 0.1 to 1 µM and the Emax lay in the range of 250 to 500%.

With `O=C([C@H](O)c1ccccc1)N1CC2=C(C1)CN(S(=O)(=O)c1cc(F)cc(F)c1)C2` [Example 18-52, (2R)-1-[5-(3,5-difluorobenzenesulfonyl)-1H,2H,3H,4H,5H,6H-pyrrolo[3,4-c]pyrrol-2-yl]-2-hydroxy-2-phenylethan-1-one], on PKR(G332S), the activation at 1.54 µM was 75 to 250%, the AC50 is 1 to 40 µM and the Emax is 75 to 250%. In addition, on PKR(wt), the activation at 1.54 µM lay within 75 to 250%, the AC50 fell in the range of 0.1 to 1 µM and the Emax is 75 to 250%. On PKR(R510Q), the activation at 1.54 µM was 75 to 250%, the AC50 lay in the range of 0.1 to 1 µM and the Emax was 75 to 250%.

Turning to `O=C([C@H](O)c1ccccc1)N1CC2=C(C1)CN(S(=O)(=O)c1cccc(OC(F)F)c1)C2` [Example 18-15, (2R)-1-{5-[3-(difluoromethoxy)benzene-sulfonyl]-1H,2H,3H,4H,5H,6H-pyrrolo[3,4-c]pyrrol-2-yl}-2-hydroxy-2-phenylethan-1-one], on PKR(G332S), the activation at 1.54 µM lay within 75 to 250%, the AC50 was at most 0.1 µM and the Emax lay within 75 to 250%. Further, on PKR(wt), the activation at 1.54 µM lay in the range of 75 to 250%, the AC50 was at most 0.1 µM and the Emax is 75 to 250%. For the same compound, at PKR(R510Q), the activation at 1.54 µM lay in the range of 250 to 50000%, the AC50 is at most 0.1 µM and the Emax was 250 to 500%.

As to `O=C(Cc1cccnc1)N1CC2=C(C1)CN(S(=O)(=O)c1ccc(OC(F)F)cc1)C2` [Example 18-26, 1-{5-[4-(Difluoromethoxy)benzenesulfonyl]-1H,2H,3H,4H,5H,6H-pyrrolo[3,4-c]pyrrol-2-yl}-2-(pyridin-3-yl)ethan-1-one], the activation at 1.54 µM on PKR(G332S) was in the range of 75 to 250%; on PKR(wt), 250 to 50000%; at PKR(R510Q), 250 to 50000%. Moreover, the AC50 on PKR(G332S) is at most 0.1 µM; on PKR(wt), 0.1 to 1 µM; on PKR(R510Q) it was 0.1 to 1 µM. In addition, the Emax at PKR(G332S) is 75 to 250%; on PKR(wt), 250 to 500%; at PKR(R510Q), 250 to 500%.

On to `Cc1ccc(CC(=O)N2CC3=C(C2)CN(S(=O)(=O)c2ccc(OC(F)F)cc2)C3)cn1` [Example 18-30, 1-{5-[4-(Difluoromethoxy)benzenesulfonyl]-1H,2H,3H,4H,5H,6H-pyrrolo[3,4-c]pyrrol-2-yl}-2-(6-methylpyridin-3-yl)ethan-1-one], for which, on PKR(G332S), the activation at 1.54 µM was 75 to 250%, the AC50 was at most 0.1 µM and the Emax lay within 75 to 250%. For the same compound, on PKR(wt), the activation at 1.54 µM lay in the range of 250 to 50000%, the AC50 was in the range of 0.1 to 1 µM and the Emax is 250 to 500%. At PKR(R510Q), the activation at 1.54 µM lay within 250 to 50000%, the AC50 lay within 0.1 to 1 µM and the Emax was in the range of 250 to 500%.

As for `O=C(NCc1ccc(F)cc1)N1CC2=C(C1)CN(S(=O)(=O)c1ccccn1)C2` [Example 21-41, N-[(4-fluorophenyl)methyl]-5-(pyridine-2-sulfonyl)-1H,2H,3H,4H,5H,6H-pyrrolo[3,4-c]pyrrole-2-carboxamide], the activation at 1.54 µM at PKR(G332S), at PKR(wt) and on PKR(R510Q) was 75 to 250% each time. The figures for the AC50 on PKR(G332S), at PKR(wt) and on PKR(R510Q) were 1 to 40 µM, 0.1 to 1 µM and 0.1 to 1 µM, respectively. Besides, the values for the Emax on PKR(G332S), on PKR(wt) and on PKR(R510Q) were 75 to 250%, 250 to 500% and 75 to 250%, respectively.

`O=C(C1CCOCC1)N1CC2=C(C1)CN(S(=O)(=O)c1ccc3c(c1)NCCO3)C2` [Example 7-1, (5-((3,4-dihydro-2H-benzo[b][1,4]oxazin-6-yl)sulfonyl)-3,4,5,6-tetrahydropyrrolo[3,4-c]pyrrol-2(1H)-yl)(tetrahydro-2H-pyran-4-yl)methanone]: at PKR(G332S), the activation at 1.54 µM lay within 75 to 250%, the AC50 was in the range of 0.1 to 1 µM and the Emax lay within 75 to 250%. Moreover, on PKR(wt), the activation at 1.54 µM fell in the range of 75 to 250%, the AC50 lay in the range of 0.1 to 1 µM and the Emax is 250 to 500%. Also, on PKR(R510Q), the activation at 1.54 µM lay within 75 to 250%, the AC50 was 1 to 40 µM and the Emax lay within 250 to 500%.
